Results published in PubChem BioAssay AID1918954 (Molecular Pharmacology Branch, DTP, NCI, 2023).

Tested on: MDA-MB-468 complex spheroids with HUVEC/MSC, viability
Assay: Anticancer human tumor MDA-MB-468 cell line growth inhibition;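 note: spheroids exposed to agents for seven days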;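 for viability, T/C: 100% = DMSO vehicle control viability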
Conditions: for IC50: curve of first compound; for viability, T/C: stronger effect = lower value
In short: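 Drug combinations with the LSD1 inhibitor iadademstat tested on tumor cells co-cultured as spheroids with endothelial cells and mesenchymal stem cells. Concentrations descended in half-log increments from clinical Cmax or 10 microM.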

[1] = second compound 0.1 µM, first compound 0.0316 µM
[2] = second compound 0.1 µM, first compound 0.1 µM
[3] = second compound 0.1 µM, first compound 0.316 µM
[4] = second compound 0.1 µM, first compound 1 µM
[5] = second compound 0.1 µM, first compound 3.16 µM
[6] = second compound 0.1 µM, first compound 10 µM
[7] = second compound 0.316 µM, first compound 0.0316 µM
[8] = second compound 0.316 µM, first compound 0.1 µM
[9] = second compound 0.316 µM, first compound 0.316 µM
[10] = second compound 0.316 µM, first compound 1 µM
[11] = second compound 0.316 µM, first compound 3.16 µM
[12] = second compound 0.316 µM, first compound 10 µM
[13] = second compound 1 µM, first compound 0.0316 µM
[14] = second compound 1 µM, first compound 0.1 µM
[15] = second compound 1 µM, first compound 0.316 µM
[16] = second compound 1 µM, first compound 1 µM
[17] = second compound 1 µM, first compound 3.16 µM
[18] = second compound 1 µM, first compound 10 µM
[19] = second compound 3.16 µM, first compound 0.0316 µM
[20] = second compound 3.16 µM, first compound 0.1 µM
[21] = second compound 3.16 µM, first compound 0.316 µM
[22] = second compound 3.16 µM, first compound 1 µM
[23] = second compound 3.16 µM, first compound 3.16 µM
[24] = second compound 3.16 µM, first compound 10 µM
[25] = second compound 10 µM, first compound 0.0316 µM
[26] = second compound 10 µM, first compound 0.1 µM
[27] = second compound 10 µM, first compound 0.316 µM
[28] = second compound 10 µM, first compound 1 µM
[29] = second compound 10 µM, first compound 3.16 µM
[30] = second compound 10 µM, first compound 10 µM
[31] = second compound 0.1 µM, first compound 0.00316 µM
[32] = second compound 0.1 µM, first compound 0.01 µM
[33] = second compound 0.316 µM, first compound 0.00316 µM
[34] = second compound 0.316 µM, first compound 0.01 µM
[35] = second compound 1 µM, first compound 0.00316 µM
[36] = second compound 1 µM, first compound 0.01 µM
[37] = second compound 3.16 µM, first compound 0.00316 µM
[38] = second compound 3.16 µM, first compound 0.01 µM
[39] = second compound 10 µM, first compound 0.00316 µM
[40] = second compound 10 µM, first compound 0.01 µM

CC(C)c1c(-c2ccccc2)nc2c(C#N)c[nH]n2c1=O + NC1CC1c1ccc(-c2cccc(O)c2)cc1
IC50 (second compound 0.1 µM): > 10000 nM
IC50 (second compound 0.316 µM): > 10000 nM
IC50 (second compound 1 µM): > 10000 nM
IC50 (second compound 3.16 µM): > 10000 nM
IC50 (second compound 10 µM): > 10000 nM
viability, T/C [1]: 91.7%
viability, T/C [2]: 89.1%
viability, T/C [3]: 94.4%
viability, T/C [4]: 96%
viability, T/C [5]: 96.7%
viability, T/C [6]: 84.1%
viability, T/C [7]: 89.2%
viability, T/C [8]: 82.6%
viability, T/C [9]: 92.5%
viability, T/C [10]: 91.4%
viability, T/C [11]: 89.4%
viability, T/C [12]: 87.9%
viability, T/C [13]: 89.1%
viability, T/C [14]: 88%
viability, T/C [15]: 86.7%
viability, T/C [16]: 102%
viability, T/C [17]: 89.7%
viability, T/C [18]: 79.5%
viability, T/C [19]: 102%
viability, T/C [20]: 83.5%
viability, T/C [21]: 87.6%
viability, T/C [22]: 88.2%
viability, T/C [23]: 81.3%
viability, T/C [24]: 74.7%
viability, T/C [25]: 66.7%
viability, T/C [26]: 67%
viability, T/C [27]: 59.3%
viability, T/C [28]: 57.2%
viability, T/C [29]: 67.1%
viability, T/C [30]: 49.4%

CC1COCCN1c1cc(-c2ccnn2C)c2ccnc(-c3ccn[nH]3)c2n1 (stereo not given) + NC1CC1c1ccc(-c2cccc(O)c2)cc1
IC50 (second compound 0.1 µM): < 3.16 nM
IC50 (second compound 0.316 µM): < 3.16 nM
IC50 (second compound 1 µM): < 3.16 nM
IC50 (second compound 3.16 µM): < 3.16 nM
IC50 (second compound 10 µM): < 3.16 nM
viability, T/C [31]: 40%
viability, T/C [32]: 30.1%
viability, T/C [1]: 16.7%
viability, T/C [2]: 7.91%
viability, T/C [3]: 5.23%
viability, T/C [4]: 2.24%
viability, T/C [33]: 37.9%
viability, T/C [34]: 27.4%
viability, T/C [7]: 17%
viability, T/C [8]: 7.28%
viability, T/C [9]: 4.97%
viability, T/C [10]: 2.27%
viability, T/C [35]: 29.2%
viability, T/C [36]: 28%
viability, T/C [13]: 15.5%
viability, T/C [14]: 7.91%
viability, T/C [15]: 5.09%
viability, T/C [16]: 2.01%
viability, T/C [37]: 27.4%
viability, T/C [38]: 22.4%
viability, T/C [19]: 12.3%
viability, T/C [20]: 7.5%
viability, T/C [21]: 5.19%
viability, T/C [22]: 2.2%
viability, T/C [39]: 20.3%
viability, T/C [40]: 17.1%
viability, T/C [25]: 10.4%
viability, T/C [26]: 6.9%
viability, T/C [27]: 5.95%
viability, T/C [28]: 2.01%

COc1ccc([C@@H](O)c2cc(-c3ncnc4cc(N5CCOCC5)ccc34)c(F)cc2Cl)nn1 + NC1CC1c1ccc(-c2cccc(O)c2)cc1
IC50 (second compound 0.1 µM): 878 nM
IC50 (second compound 0.316 µM): 876 nM
IC50 (second compound 1 µM): 720 nM
IC50 (second compound 3.16 µM): 701 nM
IC50 (second compound 10 µM): 228 nM
viability, T/C [1]: 113%
viability, T/C [2]: 103%
viability, T/C [3]: 69.1%
viability, T/C [4]: 47.4%
viability, T/C [5]: 26.1%
viability, T/C [6]: 6.17%
viability, T/C [7]: 107%
viability, T/C [8]: 82.3%
viability, T/C [9]: 69.8%
viability, T/C [10]: 52.8%
viability, T/C [11]: 25.9%
viability, T/C [12]: 5.99%
viability, T/C [13]: 109%
viability, T/C [14]: 109%
viability, T/C [15]: 71.9%
viability, T/C [16]: 39.6%
viability, T/C [17]: 21%
viability, T/C [18]: 5.38%
viability, T/C [19]: 102%
viability, T/C [20]: 87.8%
viability, T/C [21]: 73.4%
viability, T/C [22]: 37.2%
viability, T/C [23]: 21.5%
viability, T/C [24]: 4.59%
viability, T/C [25]: 69.2%
viability, T/C [26]: 59.8%
viability, T/C [27]: 45.1%
viability, T/C [28]: 33.2%
viability, T/C [29]: 20.1%
viability, T/C [30]: 2.86%

Nc1ncn(C2CC(O)C(CO)O2)c(=O)n1 (stereo not given) + NC1CCC(NC2CC2c2ccccc2)CC1
IC50 (second compound 0.1 µM): 14.2 nM
IC50 (second compound 0.316 µM): 9.71 nM
IC50 (second compound 1 µM): 12.3 nM
IC50 (second compound 3.16 µM): 11.6 nM
IC50 (second compound 10 µM): 5.55 nM
viability, T/C [31]: 88.4%
viability, T/C [32]: 59.4%
viability, T/C [1]: 28.7%
viability, T/C [2]: 14.2%
viability, T/C [3]: 9.84%
viability, T/C [4]: 8.86%
viability, T/C [33]: 84.6%
viability, T/C [34]: 48.6%
viability, T/C [7]: 28.1%
viability, T/C [8]: 15.6%
viability, T/C [9]: 9.97%
viability, T/C [10]: 10.2%
viability, T/C [35]: 83%
viability, T/C [36]: 54.9%
viability, T/C [13]: 27.5%
viability, T/C [14]: 15.4%
viability, T/C [15]: 11.1%
viability, T/C [16]: 10.6%
viability, T/C [37]: 67.7%
viability, T/C [38]: 53.4%
viability, T/C [19]: 28.2%
viability, T/C [20]: 15.5%
viability, T/C [21]: 11.3%
viability, T/C [22]: 9.32%
viability, T/C [39]: 57.4%
viability, T/C [40]: 42.2%
viability, T/C [25]: 24.4%
viability, T/C [26]: 14.4%
viability, T/C [27]: 10.6%
viability, T/C [28]: 10.1%
